Test results from PubChem BioAssay AID342 (DTP/NCI, 2004).
Values joined by “and” are separate entries in the source; they are usually repeats but may differ in a detail not shown here. Identical values can stand only once.

System: Swiss mice, Sarcoma 180 sc, mean tumor weight T/C
Assay: NCI In Vivo Anticancer Drug Screen. Data for tumor model Sarcoma 180 (subcutaneous) in Swiss mice
Details: endpoint: mean tumor weight, higher = larger tumour
Summary of the method: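 Readout is the ratio of treated-group measurement to vehicle-control measurement (T/C), based on survival or tumor size in mice carrying transplanted tumors.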

[1] = dose: 4.0 mg/kg/injection, schedule: Q01DX007 (ip), vehicle: carboxymethylcellulose (CMC)
[2] = dose: 8.0 mg/kg/injection, schedule: Q01DX007 (ip), vehicle: carboxymethylcellulose (CMC)
[3] = dose: 125.0 mg/kg/injection, schedule: Q01DX007 (ip), vehicle: carboxymethylcellulose (CMC)
[4] = dose: 25.0 mg/kg/injection, schedule: Q01DX007 (ip), vehicle: carboxymethylcellulose (CMC)
[5] = dose: 50.0 mg/kg/injection, schedule: Q01DX007 (ip), vehicle: carboxymethylcellulose (CMC)

With CC(O)C(NCNC(=O)C1=C(O)C2(O)C(=O)C3=C(O)c4c(O)cccc4C(C)(O)C3CC2C(N(C)C)C1=O)C(=O)O (stereo not drawn) the T/C (dose: 250.0 mg/kg/injection, schedule: Q#A X014 (ip), vehicle: saline) was 44 % of control and 46 % of control.

O=c1[nH]c(=O)n(C2CC(O)C(CO)O2)cc1F (stereo not drawn) was tested, and the T/C (dose: 2.0 mg/kg/injection, schedule: Q01DX007 (ip), vehicle: carboxymethylcellulose (CMC)) was 97 % of control, the T/C [1] was 108 % of control and the T/C [2] was 97 % of control. The T/C (dose: 10.0 mg/kg/injection, schedule: Q#A X014 (ip), vehicle: carboxymethylcellulose (CMC)) was 27 % of control, the T/C (dose: 12.5 mg/kg/injection, schedule: Q#A X014 (ip), vehicle: carboxymethylcellulose (CMC)) was 28 % of control and the T/C (dose: 16.0 mg/kg/injection, schedule: Q01DX007 (ip), vehicle: carboxymethylcellulose (CMC)) was 94 % of control. For the same molecule, the T/C (dose: 20.0 mg/kg/injection, schedule: Q01DX007 (ip), vehicle: saline) was 119 % of control, the T/C (dose: 20.0 mg/kg/injection, schedule: Q#A X014 (ip), vehicle: carboxymethylcellulose (CMC)) was 14 % of control and the T/C (dose: 25.0 mg/kg/injection, schedule: Q#A X014 (ip), vehicle: carboxymethylcellulose (CMC)) was 10 % of control. For the same molecule, the T/C (dose: 40.0 mg/kg/injection, schedule: Q01DX007 (ip), vehicle: saline) was 86 % of control, the T/C (dose: 40.0 mg/kg/injection, schedule: Q#A X014 (ip), vehicle: carboxymethylcellulose (CMC)) was 4 % of control and the T/C (dose: 80.0 mg/kg/injection, schedule: Q01DX007 (ip), vehicle: carboxymethylcellulose (CMC)) was 29 % of control. The T/C (dose: 80.0 mg/kg/injection, schedule: Q01DX007 (ip), vehicle: saline) was 109 % of control, the T/C (dose: 80.0 mg/kg/injection, schedule: Q#A X014 (ip), vehicle: carboxymethylcellulose (CMC)) was 15 % of control and the T/C (dose: 106.6 mg/kg/injection, schedule: Q01DX007 (ip), vehicle: carboxymethylcellulose (CMC)) was 7 % of control. For the same molecule, the T/C (dose: 128.0 mg/kg/injection, schedule: Q01DX007 (ip), vehicle: carboxymethylcellulose (CMC)) was 8 % of control, the T/C (dose: 160.0 mg/kg/injection, schedule: Q01DX007 (ip), vehicle: carboxymethylcellulose (CMC)) was 5 % of control and the T/C (dose: 160.0 mg/kg/injection, schedule: Q01DX007 (ip), vehicle: saline) was 56 % of control.

NC1C(O)C(O)C(Nc2ncnc3nc[nH]c23)OC1C(O)CO (stereo not drawn) was tested, and the T/C (dose: 0.44 mg/kg/injection, schedule: Q## X000 (ip), vehicle: carboxymethylcellulose (CMC)) was 100 % of control, the T/C (dose: 0.66 mg/kg/injection, schedule: Q## X000 (ip), vehicle: carboxymethylcellulose (CMC)) was 66 % of control and the T/C (dose: 1.0 mg/kg/injection, schedule: Q## X000 (ip), vehicle: carboxymethylcellulose (CMC)) was 82 % of control. The T/C (dose: 1.5 mg/kg/injection, schedule: Q## X000 (ip), vehicle: carboxymethylcellulose (CMC)) was 72 % of control.

With CC(CN)CCC(C)(O)C(N)=O (stereo not drawn) the T/C (dose: 83.0 mg/kg/injection, schedule: Q#A X014 (ip), vehicle: methylcellulose (MC)) was 63 % of control, the T/C (dose: 125.0 mg/kg/injection, schedule: Q#A X014 (ip), vehicle: methylcellulose (MC)) was 49 % of control and the T/C (dose: 187.5 mg/kg/injection, schedule: Q#A X014 (ip), vehicle: methylcellulose (MC)) was 47 % of control.

In the case of O=C(Nc1ccc(Sc2ccc(N=Nc3c(O)c(S(=O)(=O)O)cc4cc(S(=O)(=O)O)ccc34)cc2)cc1)c1ccc(N=Nc2ccc3c(S(=O)(=O)O)cccc3c2O)cc1, the T/C (dose: 55.0 mg/kg/injection, schedule: Q01DX007 (ip), vehicle: carboxymethylcellulose (CMC)) is reported as 68 % of control and 78 % of control, the T/C (dose: 84.0 mg/kg/injection, schedule: Q01DX007 (ip), vehicle: carboxymethylcellulose (CMC)) is reported as 72 % of control and 75 % of control and the T/C [3] is reported as 28 % of control. For the same molecule, the T/C (dose: 188.0 mg/kg/injection, schedule: Q01DX007 (ip), vehicle: carboxymethylcellulose (CMC)) was 25 % of control.

For O=S(=O)(O)C(Nc1ccccc1)c1ccccc1 (stereo not drawn), the T/C (dose: 24.0 mg/kg/injection, schedule: Q01DX007 (ip), vehicle: carboxymethylcellulose (CMC)) was 80 % of control, the T/C (dose: 36.0 mg/kg/injection, schedule: Q01DX007 (ip), vehicle: carboxymethylcellulose (CMC)) was 94 % of control and the T/C (dose: 54.0 mg/kg/injection, schedule: Q01DX007 (ip), vehicle: carboxymethylcellulose (CMC)) was 92 % of control. The T/C (dose: 81.0 mg/kg/injection, schedule: Q01DX007 (ip), vehicle: carboxymethylcellulose (CMC)) was 93 % of control, the T/C (dose: 162.0 mg/kg/injection, schedule: Q01DX007 (ip), vehicle: carboxymethylcellulose (CMC)) was 113 % of control and the T/C (dose: 324.0 mg/kg/injection, schedule: Q01DX007 (ip), vehicle: carboxymethylcellulose (CMC)) was 84 % of control.

O=C1c2ccccc2C(=O)c2c1c(O)c1ccccc1c2O was tested, and the T/C (dose: 100.0 mg/kg/injection, schedule: Q#A X014 (im), vehicle: other) was 87 % of control, the T/C (dose: 100.0 mg/kg/injection, schedule: Q#A X014 (sc), vehicle: other) was 70 % of control and the T/C (dose: 200.0 mg/kg/injection, schedule: Q#A X014 (im), vehicle: other) was 109 % of control. The T/C (dose: 200.0 mg/kg/injection, schedule: Q#A X014 (sc), vehicle: other) was 66 % of control, the T/C (dose: 300.0 mg/kg/injection, schedule: Q#A X014 (im), vehicle: other) was 114 % of control and the T/C (dose: 300.0 mg/kg/injection, schedule: Q#A X014 (sc), vehicle: other) was 64 % of control. For the same molecule, the T/C (dose: 400.0 mg/kg/injection, schedule: Q#A X014 (im), vehicle: other) was 90 % of control, the T/C (dose: 400.0 mg/kg/injection, schedule: Q#A X014 (sc), vehicle: other) was 65 % of control and the T/C (dose: 500.0 mg/kg/injection, schedule: Q#A X014 (oral), vehicle: other) was 72 % of control. For the same molecule, the T/C (dose: 750.0 mg/kg/injection, schedule: Q#A X014 (oral), vehicle: other) was 69 % of control.

In the case of CC(=O)OCC1OC(n2cnc3c(=S)nc[nH]c32)C(OC(C)=O)C1OC(C)=O (stereo not drawn), the T/C (dose: 20.0 mg/kg/injection, schedule: Q01DX007 (ip), vehicle: carboxymethylcellulose (CMC)) is reported as 81 % of control, the T/C (dose: 30.0 mg/kg/injection, schedule: Q01DX007 (ip), vehicle: carboxymethylcellulose (CMC)) is reported as 75 % of control and the T/C (dose: 45.0 mg/kg/injection, schedule: Q01DX007 (ip), vehicle: carboxymethylcellulose (CMC)) is reported as 54 % of control.

With CN=C(N)c1ccc(N=C(N)c2ccc(C(N)=Nc3ccc(C(N)=NC)cc3)cc2)cc1 the T/C (dose: 12.5 mg/kg/injection, schedule: Q01DX007 (ip), vehicle: carboxymethylcellulose (CMC)) was 124 % of control, the T/C [4] was 86 % of control and the T/C [5] was 80 % of control.

For CC(=O)C(CCC(=O)O)(CCC(=O)O)c1ccccc1, the T/C (dose: 15.0 mg/kg/injection, schedule: Q#A X014 (ip), vehicle: other) was 83 % of control, the T/C (dose: 30.0 mg/kg/injection, schedule: Q#A X014 (ip), vehicle: other) was 106 % of control and the T/C (dose: 60.0 mg/kg/injection, schedule: Q#A X014 (ip), vehicle: other) was 98 % of control. For the same molecule, the T/C (dose: 120.0 mg/kg/injection, schedule: Q#A X014 (ip), vehicle: other) was 112 % of control.

CCCCN(C)/N=N/c1nc[nH]c1C(N)=O was tested, and the T/C (dose: 31.0 mg/kg/injection, schedule: Q01DX007 (ip), vehicle: carboxymethylcellulose (CMC)) was 44 % of control, the T/C (dose: 62.0 mg/kg/injection, schedule: Q01DX007 (ip), vehicle: carboxymethylcellulose (CMC)) was 31 % of control and the T/C [3] was 14 % of control.

CC(C)CN(C)/N=N/c1nc[nH]c1C(N)=O was tested, and the T/C [4] was 92 % of control and the T/C [5] was 41 % of control.

C[C@H](N)C(=O)N[C@@H]1[C@H]2C(=C(O)C[C@@H](O)[C@@H]2O)C(=O)O[C@@H]1C was tested, and the T/C (dose: 250.0 mg/kg/injection, schedule: Q01DX007 (ip), vehicle: carboxymethylcellulose (CMC)) was 66 % of control, the T/C (dose: 500.0 mg/kg/injection, schedule: Q01DX007 (ip), vehicle: carboxymethylcellulose (CMC)) was 42 % of control and the T/C (dose: 1000.0 mg/kg/injection, schedule: Q01DX007 (ip), vehicle: carboxymethylcellulose (CMC)) was 12 % of control.

In the case of O=C1c2ccccc2C(=O)N1CCF, the T/C [1] is reported as 90 % of control and the T/C [2] is reported as 72 % of control.

In the case of Clc1ccc2c(c1)Cc1cc(N=Cc3ccccc3Cl)ccc1-2, the T/C (dose: 42.0 mg/kg/injection, schedule: Q01DX007 (ip), vehicle: other) is reported as 77 % of control, the T/C (dose: 64.0 mg/kg/injection, schedule: Q01DX007 (ip), vehicle: other) is reported as 108 % of control and the T/C (dose: 66.0 mg/kg/injection, schedule: Q01DX007 (ip), vehicle: saline) is reported as 57 % of control. For the same molecule, the T/C (dose: 99.0 mg/kg/injection, schedule: Q01DX007 (ip), vehicle: saline) was 52 % of control, the T/C (dose: 148.0 mg/kg/injection, schedule: Q01DX007 (ip), vehicle: saline) was 38 % of control and the T/C (dose: 222.0 mg/kg/injection, schedule: Q01DX007 (ip), vehicle: other) was 42 % of control and 46 % of control. For the same molecule, the T/C (dose: 222.0 mg/kg/injection, schedule: Q01DX007 (ip), vehicle: saline) was 31 % of control, the T/C (dose: 333.0 mg/kg/injection, schedule: Q01DX007 (ip), vehicle: other) was 20 % of control and 40 % of control and the T/C (dose: 492.0 mg/kg/injection, schedule: Q01DX007 (ip), vehicle: carboxymethylcellulose (CMC)) was 40 % of control. For the same molecule, the T/C (dose: 500.0 mg/kg/injection, schedule: Q01DX007 (ip), vehicle: other) was 22 % of control, the T/C (dose: 750.0 mg/kg/injection, schedule: Q01DX007 (ip), vehicle: carboxymethylcellulose (CMC)) was 31 % of control and the T/C (dose: 750.0 mg/kg/injection, schedule: Q01DX007 (ip), vehicle: other) was 20 % of control.
